Source: patent publication US4143010A, “High retention wood preservative composition” (Canadian Patents and Development Limited, priority 1978, dated 1979)
Converted amounts (≈) assume the structure as drawn. Where two headings read alike, the source gives them in different places.

Key:
[1] = Leaching resistance test; format: physicochemical; conditions: for increase of leaching resistance due to additives: with additives versus without
Protocol: Solution I 5% w/v D-18 in chloroform
Solution II 5% w/v D-20 in chloroform
1.0% w/v polystyrene in chloroform
Solution IV same as III but with 5% w/v D-20.
uptake of preservative was calculated from the weight increase. Chloroform solvent was removed from the samples by air drying followed by drying in the oven at 105° C. for 4 hours. Each sample was leached with a standard volume of distilled water at room temperature. Every two hours the water surrounding each sample was removed for spectrophotometric measurement and was replaced by another standard volume of fresh distilled water. Total leaching time was 140 hours. The concentration of D18 and D20 in the leach water was determined by comparing specific absorbance in UV light with the absorbance of known concentrations of D18 and D20 in water. The leached amount of D18 and D20 was recalculated as a percent of the original amount impregnated into the samples before leaching.

[2] = system: Lenzites trabea; experiment: Effectiveness against decay fungi on spruce sections; format: cell-based, Lenzites trabea (S644); conditions: for Average Percentage of Wood Area Colonized: 19 days at 27° C
Protocol: (§1) The fungicidal activity of these compositions was determined in an accelerated experiment with the wood-rotting basidiomycetes Lenzites trabea (S644), Coniophora puteana (A302) and Poria monticola (A384) as test fungi. Small cross-the-grain sections of spruce wood (Picea glauca, a refractory species) were cut 40 microns thick on a microtome. All treatment specimens (0.5 × 0.5 inch) were cut from the same block of wood and were therefore homogeneous in nature. Wood specimens were treated to different retention levels with the active ingredients D18 or D20 with or without the additives. Two of each treatment series were placed on sterilized glass microscopic cover slips (22 mm^2) which were then deposited upon cultures of actively growing decay fungi in Petri dishes. Cultures were grown on a 2% malt extract, 2% agar medium. Two untreated specimens were included in each culture dish as controls. Treatment series were 0.1, 0.5 and 1.75 pcf. Incubation was for 19 days at 27° C. Each test was done in duplicate. Evaluation of the treated samples was made using a stereoscopic microscope (× 10.5 magnification). The percentage of the surface area of each specimen colonized by the test fungus was determined. The smaller the colonized surface area on each wood specimen, the more efficient the preservative composition used for specimen treatment.

[3] = system: Coniophora puteana; experiment: as above; format: cell-based, Coniophora puteana (A302); conditions: 19 days at 27° C
Protocol: as §1

[4] = system: Poria monticola; experiment: as above; format: cell-based, Poria monticola (A384); conditions: for Average Percentage of Wood Area Colonized: 19 days at 27° C
Protocol: as §1

[5] = system: Poria monticola; experiment: Soil-block culture decay test after leaching; format: cell-based; conditions: leached samples
Excerpt: 5% (w/cv) D18 in chloroform and
5% (w/v) D18 with 1.4% wax and 1% polystyrene in chloroform solution.
After solvent removal by slow air drying and a short period of oven drying both series of samples were exposed to leaching in water under the same conditions (time of exposure, temperature and volume of water for leaching). […] After leaching the samples were further tested for toxicity against a wood-decaying fungus in a modified standard method of testing wood preservatives by laboratory soil-block cultures. Five untreated controls and 5 samples from each preservative series were put into soil jars on wooden feeder blocks inoculated with a standard test fungus Poria monticola. […] Jars were located in an incubation room maintained at 80° F. and 70% R.H. and were opened one by one in five consecutive time intervals, after 25 -- 32 -- 39 -- 46 and 65 days incubation. Wood specimens taken from the jars were oven dried and the weight loss due to decay calculated.

[6] = Test of solubility of oxathiins and additives in various solvents; format: physicochemical
Excerpt: Table 5 is a solubility chart summarizing a list of organic solvents solubilizing oxathiins and the two additives which can be applied in the same solution.

[7] = system: Lenzites trabea; conditions: wood preservative threshold; cited from earlier work
[8] = Accelerated sublimation test of deposits on glass under vacuum; format: physicochemical; conditions: room temperature
Excerpt: In order to determine the influence of chemical components in the preservative composition on loss of preservative (PCP) under accelerated sublimation conditions, three solutions have been prepared, separately, in carbon tetrachloride as a solvent (in percent w/v).
I. solution: PCP (3.5%) as a preservative.
Ii. solution; PCP (3.5%) and stearic acid (3.5%) as the hydrophobic agent.
III. Solution: PCP (3.5%) stearic acid (3.5%) and polystyrene (0.7%) as the organic polymer.
The same volume of each solution (0.07 ccm/sq.in.) has been poured on the surface of glass template and the solent evaporated at room temperature leaving solid deposits of each sample. Then these deposits of the 3 different preservative compositions (I--II--III), in which the amount of preservative (PCP) was the same, were exposed to vacuum at room temperature in order to accelerate the loss of components. The loss of weight of each single deposit was checked periodically and is expressed in FIG. 1 in percent of original weight of preservative (PCP).

[9] = Hydrophobicity (contact angle of water drops) of treated red pine; format: physicochemical; conditions: contact angle 180°
Protocol: The same solutions of preservative compositions (I--II--III), as in Example I have been used for impregnation of red pine wood samples in order to determine the effect on hydrophobicity of wood. After the samples of wood have been fully saturated by solutions I--II--III, the solvent was then evaporated at room temperature during the next 24hours, leaving solid deposits of the components in the wood. Measurements of contact angles of the surface of water drops on pertinent wood samples were made to show the relative hydrophobicity. The sooner the water soaks in the surface of wood (contact angle 180°) the lower the hydrophobicity of wood and vice versa.

[10] = Immobilization of PCP in spruce microsections, vacuum exposure and microscopy; format: physicochemical
Excerpt: From both samples, microsections were cut from the wood tissues, approximately 0.35 -0.37 inch from the surface in the radial direction, i.e. within the area, where the PCP was positively detected by previous staining. Numerous microscopic sections (transverse) were made from both samples (A and B) separately. From each of both groups of microsections, typical sections were again microscopically stained with a Silver-Copper complex (which is the basis of the "Penta-Check") to detect again PCP in the microsections. Other typical unstained microsections were mounted into microscopic slides and without any staining examined microscopically. On the viewed microsections of treated wood typical spots were selected where the cell obviously contained significant deposits of PCP, and photographed, at the same magnification. Photographed microsections from sample A and B were then carefully removed from the slides, gently dried off by a touch of absorbent paper at the corner of the microsections, and transferred into a vacuum desiccator by a micromanipulator. The desiccator was then closed and very slowly evacuated. When the vacuum reached 29.5 inch Hg, the desiccator was sealed and the microsections left for 7 days ([…]). Then the desiccator, still at 27 inch vacuum, was slowly filled with air, opened and the microsections transferred onto glass slides and mounted for microscopic examination. This exposure under the same vacuum conditions (29.5 -27 inch Hg) for 7 days gave accelerated sublimation of PCP. The accelerated vacuum test is considered as an accurate simulation of the effect of ordinary atmosphere for an extended time. The microscopic slides were carefully examined, the same spot of each microsection was found (as photographed before vacuum exposure) and rephotographed (at the same magnification) for comparison.
Two pairs of photomicrographs are shown as FIGS. 1 (a ) and 1 (b ), and as FIGS. 2 (a ) and 2 (b ), being typical of observations of as many as 50 microsections. […]

[11] = retention 0.1 pcf, * = mycelia extended over the top but did not colonize all substrate underneath
[12] = water, read-out: Solubility in water

Row | Structure (SMILES) | Cumulative Percent Preservative Leached from Wood ([1]; 10 hours of exposure) [%] | Cumulative Percent Preservative Leached from Wood ([1]; 30 hours of exposure) [%] | Cumulative Percent Preservative Leached from Wood ([1]; 70 hours of exposure) [%] | Cumulative Percent Preservative Leached from Wood ([1]; 140 hours of exposure) [%] | increase of leaching resistance due to additives [1] | Average Percentage of Wood Area Colonized [2, 11] [Percentage] | Average Percentage of Wood Area Colonized ([2]; retention 0.5 pcf) [Percentage] | Average Percentage of Wood Area Colonized ([2]; retention 1.75 pcf) [Percentage] | Average Percentage of Wood Area Colonized ([3]; retention 0.1 pcf) [Percentage] | Average Percentage of Wood Area Colonized ([3]; retention 0.5 pcf) [Percentage] | Average Percentage of Wood Area Colonized ([3]; retention 1.75 pcf) [Percentage] | Average Percentage of Wood Area Colonized [4, 11] [Percentage] | Average Percentage of Wood Area Colonized ([4]; retention 0.5 pcf) [Percentage] | Average Percentage of Wood Area Colonized ([4]; retention 1.75 pcf) [Percentage] | solubility [6, 12] [µg/mL] | further results
1 | CC1=C(C(=O)Nc2ccccc2)SCCO1 [Solution D18, 2,3-dihydro-5-carboxanilido-6-methyl-1,4-oxathiin] | 14 | 27 | 43 | 56 | 51-57% | 25 | 0 | 0 | 30 | 5 | 5 | 40 | 0 | 0 | 170 (≈ 722 µM) | Cumulative Percent Weight Loss Due to Decay ([5]; 25 days of incubation): 2%; Cumulative Percent Weight Loss Due to Decay ([5]; 32 days of incubation): 4%; Cumulative Percent Weight Loss Due to Decay ([5]; 39 days of incubation): 6%; Cumulative Percent Weight Loss Due to Decay ([5]; 46 days of incubation): 10%; Cumulative Percent Weight Loss Due to Decay ([5]; 65 days of incubation): 21%; known threshold level [7]: 1.1 mg/mL
2 | Oc1c(Cl)c(Cl)c(Cl)c(Cl)c1Cl [PCP, pentachlorophenol] | – | – | – | – | – | – | – | – | – | – | – | – | – | – | – | loss of PCP ([8]; deposit on glass under vacuum, % of original weight of PCP (FIG. 1)): 99%; time for water to soak into wood surface [9]: ≤ 40 s; PCP retention after vacuum exposure ([10]; 164 hours, 29.5-27 inch Hg): had disappeared after vacuum exposure; water repellency of microsections ([10]; microscopic sections): not highly water repellent; distribution of PCP in the cells ([10]; microscopic staining): deposited on the cell walls in individual spots
3 | CC1=C(C(=O)Nc2ccccc2)S(=O)(=O)CCO1 [Solution D20] | 10 | 38 | 54 | 61 | 17-27% | 50 | 0 | 0 | 40 | 10 | 10 | 50 | 15 | 10 | 1000 (≈ 3740 µM) | effect of additives on effectiveness [2]: increase in the effectiveness of D20 due to the additives; effect of additives on effectiveness [4]: increase in the effectiveness of D20 due to the additives; solubility ([6]; Carbon tetrachloride): - (+); solubility ([6]; Perchloroethylene): - (+)
4 | CCCCCCCCCCCCCCCCCC(=O)O [stearic acid] | – | – | – | – | – | – | – | – | – | – | – | – | – | – | – | reduction of PCP sublimation compared to the control ([8]; vacuum, control = PCP alone): 34%
